What was measured:
APP holoprotein = test: Cell-associated APP holoprotein in cultured astrocytes (Western blot); assay type: cell-based, rat; design: basal APPh levels (compound by itself): unit of the concentration uncertain
Procedure: (§1) Astrocytes are isolated from cortices from postnatal rats by methods standard in the art. In brief, dissected cortices are dissociated by trypsinization and trituration through a flame-polished Pasteur pipette. Cells are plated onto poly-L-lysine coated 35- or 100 mm culture dishes at densities of about 10-25 cells/mm^2. The initial culture media, minimal essential medium (MEM, Gibco) containing 10% horse serum (BioWhittaker), are aspirated after 2-5 h after plating to remove unattached cells and debris, and replaced with MEM containing 7.5% fetal bovine serum (FBS, BioWhittaker). Half the media is replaced with MEM/7.5% FBS twice weekly. Cells are kept at 37° C. in a humidified 5% CO2/95% air incubator. Media are changed twice weekly. […] Pharmacological manipulations are performed in serum-free media on 7-14 DIV confluent astrocytes.
To detect cell-associated proteins (APP or GFAP), astrocytes from 35 mm dishes are scraped into lysis buffer (60 mm Tris/HCl, 4% SDS, 20% glycerol, 1 mm dithiothreitol), ultrasonicated and boiled for […]. The total amount of cell protein per dish, estimated using the bicinchoninic acid assay, is not altered by pharmacological treatments. Bromphenol blue (0.1%) is added to each sample and equal amounts of protein ([…]) are loaded on 10% SDS polyacrylamide gels.
The amount of media or cell protein loaded for sodium dodecyl sulfate-polyacrylamide gel electrophoresis (10-20% SDS PAGE; Bio-Rad) is normalized for the amount of protein per sample. Proteins (equivalent to 100 μg cell protein/lane) are separated by electrophoresis, electroblotted onto polyvinylidene difluoride membranes (Immobilon-P, Millipore) and blocked in Tris-buffered saline with 0.15% Tween 20 (TEST) containing 5% powdered milk for 30 min. After 2×10 mm rinses in TBST, the membranes are incubated in TEST containing an appropriate antibody. Monoclonal antibodies 22C11 and GFAP (both from Boehringer Mannheim) are used to detect the N-terminus of APP and glial fibrillary acidic protein respectively; antisera R37 and R98 (gifts of Dr. F. Kametani, Tokyo Institute of Psychiatry) are used to detected the C-terminus and KPI motifs of APP respectively; antiserum C8 (gift of Dr. D. Selkoe, Women's Hospital, Harvard Medical School, Cambridge, Mass.) is used to detect the C-terminus of APP.
After an overnight incubation, membranes are rinsed in TBST then treated for 1 h with a peroxidase-linked secondary antibody. After several rinses in TEST, protein bands are visualized on Kodak X-AR films by an enhanced chemiluminescence method (Amersham). Optical densities of the protein bands are quantitated by laser scanning densitometry (LICE, Bromma, Sweden), and normalized to the densities of those bands generated under control conditions.
Measurements of cellular and secreted proteins, or of mRNA in treatment groups are normalized against those of control groups which are prepared in parallel and loaded onto the same blot. Analysis of variance (ANOVA) and t-tests are used to evaluate differences between groups (significance level, p=0.05), using drug treatments as the independent variable.

cAMP = test: PGE2-induced cAMP increases in 10-day old rat cortical neurons; assay type: cell-based; design: effect on basal cAMP levels: unit of the concentration uncertain; conditions: for effect on basal cAMP levels: no PGE2, cortical neurons; for effect on PGE2-stimulated cAMP levels: cortical neurons
Procedure: FIG. 5. Effect of Cannabinoids on Prostaglandin E2-Induced cAMP Increases in 10-Day Old Rat Cortical Neurons.
Levels of cyclic AMP are measured with an [8-^3H]-cAMP assay kit (Amersham TRK 432) in astrocytes grown on 35 mm dishes. In brief, after aspirating the medium and rinsing twice with 1 ml ice cold PBS, the cells are scraped in 0.8 mL ice cold ethanol and sonicated. The cell suspension is incubated for […] at room temperature, centrifuged and the supernatant is dried in a rotary evaporator. After resuspension in 120 μL Tris/EDTA buffer, two duplicate samples of 50 μl each are mixed with the binding protein, [8-^3H] adenosine 3′,5′-cyclic phosphate tracer and incubated at 2-4° C. for 2 h. A charcoal suspension (100 μL) is added to the samples before centrifugation and 200 μL of the supernatant is removed for scintillation counting. The amount of cyclic AMP (pmol/mg protein) is estimated by comparing to known standards, and normalized to the amounts of whole cell protein as determined by the bicinchoninic acid assay (Sigma).
Referring now to FIG. 5, cell cultures of 10-day old cortical neurons are used to assess the affect of anandamide (50 M), methanandamide (10 M), and 2-AG (50 M) on PGE2-stimulated cAMP levels. PGE2 (50 M) is found to elevate cAMP levels about 1.6-fold over basal (control).

APP mRNA = APP mRNA levels in cultured astrocytes (Northern blot); assay type: cell-based, rat; conditions: 1, 10 or 100 μM, 24 h
Procedure: as §1
Total RNA from astrocytes grown on 100 mm dishes is extracted by the acid guanidium thiocyanate-phenol chloroform method. […] The levels of APP mRNA are normalized to the amounts of G3PDH mRNA and expressed as a ratio to the levels of untreated, control cells.
Confluent monolayers of astrocytes prepared according to Example 8.1 are treated with serum-free media containing 50, 100, or 250 μM 8Br-cAMP for varying durations (1 h, 6 h, 12 h, or 24 h). Levels of cAMP in astrocytes are measured with a [8-^3H]-cAMP assay kit (Amersham TRK 432).

soluble APP (APPs) = test: Secreted soluble APP in astrocyte culture media (Western blot); assay type: cell-based, rat; conditions: astrocytes
Procedure: as §1
To detect secreted APP, culture media is collected after drug treatments and phenylmethylsulfonyl fluoride is added to a final concentration of 2 mM. The media samples are then applied to Sephadex PD-b desalting columns (Pharmacia) and eluted with distilled water. […]
The amount of media or cell protein loaded for sodium dodecyl sulfate-polyacrylamide gel electrophoresis (10-20% SDS PAGE; Bio-Rad) is normalized for the amount of protein per sample. […] Monoclonal antibodies 22C11 and GFAP (both from Boehringer Mannheim) are used to detect the N-terminus of APP and glial fibrillary acidic protein respectively; antisera R37 and R98 (gifts of Dr. F. Kametani, Tokyo Institute of Psychiatry) are used to detected the C-terminus and KPI motifs of APP respectively; antiserum C8 (gift of Dr. D. Selkoe, Women's Hospital, Harvard Medical School, Cambridge, Mass.) is used to detect the C-terminus of APP.
After an overnight incubation, membranes are rinsed in TBST then treated for 1 h with a peroxidase-linked secondary antibody. […] Optical densities of the protein bands are quantitated by laser scanning densitometry (LICE, Bromma, Sweden), and normalized to the densities of those bands generated under control conditions. […]

Abeta = test: Total Abeta media concentration in CHO cells transfected with human APP gene construct; assay type: cell-based, Chinese Hamster; design: unit of the concentration uncertain
Description: FIG. 3. Effect of Varying Concentrations of Resveratrol on Total Abeta Media Concentration in CHO Cells Transfected with Human APP Gene Construct at Four Hours.

SMILES: CCCCC/C=C\C/C=C\C/C=C\C/C=C\CCCC(=O)N[C@H](C)CO [Methanandamide, methanandamide]
- effect on PGE2-stimulated APPh levels (APP holoprotein; 10 M methanandamide compared with 50 μM anandamide, cultured astrocytes): more efficacious than anandamide
- effect on basal cAMP levels (cAMP; 10 (unit uncertain)): no effect on basal levels
- effect on PGE2-stimulated cAMP levels (cAMP; 10 M with PGE2 50 M): inhibit the PGE2-induced increase in cAMP levels

SMILES: CCCCC[C@H](O)/C=C/[C@H]1[C@H](O)CC(=O)[C@@H]1C/C=C\CCCC(=O)O [PGE2, prostaglandin E2]
- amounts of astrocytic APP mRNA (4.5 kb) relative to untreated cells (APP mRNA): significantly increases
- increase in APPh levels compared to controls (APP holoprotein; 50 μM prostaglandin E2 alone, cultured astrocytes, two experiments): ~75%
- increase in APPh levels (APP holoprotein; PGE2 alone, cultured astrocytes (FIG. 4)): three-fold
- APP secreted in the media (110-130 kD) (soluble APP (APPs); 1, 10 or 100 μM, 24 h): also increased
- cAMP levels over basal (control) (cAMP; PGE2 50 M alone, 10-day old cortical neurons): about 1.6 fold

SMILES: Cc1c(C(=O)c2cccc3ccccc23)c2cccc3c2n1[C@H](CN1CCOCC1)CO3 [WIN55212-2]
- effect on APPh levels in the absence of PGE2 (APP holoprotein; 100 µM, cultured astrocytes): no statistically significant effect
- increase in APPh levels with PGE2 stimulation (APP holoprotein; WIN55212-2 100 M added to PGE2, cultured astrocytes): limited to two-fold

SMILES: CCCCC/C=C\C/C=C\C/C=C\C/C=C\CCCC(=O)NCCO [anandamide]
- increase in APPh levels over control in presence of PGE2 (APP holoprotein; 50 μM anandamide with 50 μM prostaglandin E2, cultured astrocytes): about 55%
- basal APPh levels (compound by itself) (APP holoprotein; 50 µM, without PGE2, cultured astrocytes): reduce APPh levels below control values
- effect on PGE2-stimulated cAMP levels (cAMP; 50 µM with PGE2 50 M): suppress the PGE2-induced stimulation
- effect on basal cAMP levels (cAMP; 50 (unit uncertain)): no effect on basal levels

SMILES: Oc1ccc(C=Cc2cc(O)cc(O)c2)cc1 [resveratrol]
- decrease in APP holoprotein (APP holoprotein; 10 μM (so in the source) and intermediate concentrations, one hour, astrocytes, p<0.05): significant decrease
- levels of cellular amyloidogenic APP holoprotein (APP holoprotein; 10 μM and higher, one hour, astrocytes, p<0.05): decreased to about half
- stimulation of APPs (soluble APP (APPs); 10 nM and intermediate concentrations, one hour): Significant stimulation
- formation of soluble APP (APPs) over control (soluble APP (APPs); 10 μM and higher, one hour, average of four experiments, p<0.05): about two-fold over control
- Abeta levels in the media (Abeta; 100 (unit uncertain), four-hour treatment): decrease to about half
- Abeta levels in the media (Abeta; lower concentrations (0.1, 1.0, 10 (unit uncertain)), four hours): not to differ from control
